One assay concerns WT primary NSCs. In words: Neural stem cell differentiation assay, neurite outgrowth (MAP2 immunostaining). It is filed as cell-based, mouse. Particulars: 2.5 μM peptide, differentiated in vitro for 5 days. The method, then:
Briefly, glass coverslips in an untreated 24-well plate were coated with poly-ornithine and laminin After splitting neurospheres during passaging, individual cells were plated at a density of 10^4 cells/cm^2 in 500 μl of NBM-GF. Every other day, 250 μl of media was removed from each well and 300 μl of fresh NBM-GF was added. When the attached cell reached approximately 70% confluency (around day 5), all NBM-GF within each well was gently removed and immediately replaced with neurobasal media without growth factor (NBM) with ISP peptide (2.5 μM) or scramble peptide (2.5 μM). Each well was fed daily by removing 250 μl of the media and adding 300 μl of the media containing ISP or scramble peptide. On Day 5 after complete replacement of the NBM-GF, the wells were fixed with 4% paraformaldehyde for 15 min at room temperature and stored in phosphate-buffered saline at 4° C. until staining.
Cells cultured on coverslip were fixed in 4% PFA for 15 min, permeabilized in 0.1% Triton-X100 for 10 min and then incubated in 10% normal goat serum for 1 hour. […] Three coverslips were analyzed per condition. Random selections of field in each coverslip were chosen and imaged by Stereo Investigator Software (MBF Bioscience, Williston, VT, USA), and quantitative data was obtained by using NIH ImageJ software.

The test system of assay [1] is stroke mice. In words: Survival of stroke mice after tMCAO with post-stroke treatment. It counts as in vivo, mouse. The method, then: First, the efficacy of post-stroke ISP treatment in the C57BL/6 mouse was tested using a proximal middle cerebral artery occlusion (pMCAO) model. Three cohorts of mice (n=59) were subjected to MCAO surgery to induce a large stroke in both striatal and cortical tissue, mimicking a human “malignant” stroke, which tends to be fatal in humans. Stroke mice were subjected to T2 weighted MRI scanning to determine the size of the stroke injury and were grouped blindly into two equally distributed groups that received either daily vehicle (5% DMSO) or daily ISP (20 μg/mouse/day or 30 μg/mouse/day S.C. injections) treatment starting from 24 hours after stroke onset for 6 weeks.
Transient middle cerebra artery occlusion (tMCAO) was induced in male C57BL/6 mice (12 weeks old, 25-30 g) by intraluminal occlusion of the left MCA for 45 min with silicone rubber-coated monofilament (Cat. 602212PK10Re and 602312PK10Re, Doccol Corporation). Briefly, mice were anesthetized with isoflurance. Body temperature was monitored and maintained at 37±0.5° C. by homeothermic blanket control unit (Harvard apparatus). To minimize animal's pain, mice were subcutaneously injected with buprenorphine. […] To ensure consistent and successful blockage of MCA, regional cerebral blood flow was monitored in all stroke animals by Laser Doppler flowmetry (PeriFlux system 5000, Perimed, Sweden). […]

Assay [2] concerns stroke mice. Kind of assay: Computer automated open field locomotion analysis in stroke mice. It is filed as in vivo, mouse. Here is the method: First, the efficacy of post-stroke ISP treatment in the C57BL/6 mouse was tested using a proximal middle cerebral artery occlusion (pMCAO) model. Three cohorts of mice (n=59) were subjected to MCAO surgery to induce a large stroke in both striatal and cortical tissue, mimicking a human “malignant” stroke, which tends to be fatal in humans. […]
To test the timing of ISP administration relative to the time of injury, and the corresponding effect on recovery, adult C57bl/6J female and male mice were subjected to transient proximal MCAO surgery (35 min) as described above. […]
Mice motor activities were assessed using Accuscan activity monitor (Columbus, OH, USA) one day before and 3, 7, 14, 21, 35 and 42 days after tMCAO as previously described. […] To avoid observer bias, this locomotor test was automatically monitored by the computer and software. Locomotor activity was calculated by automated Versamax software (Accuscan, Columbus, OH, USA). The following variables were measured: (A) horizontal activity (the total number of beam interruptions that occurred in the horizontal sensors); (B) total distance traveled (cm, the distance traveled by the animals); (C) Vertical activity (the total number of beam interruptions that occurred in vertical sensors).

The test system of assay [3] is stroke mice. In words: Adhesive removal test (sensorimotor function) in stroke mice. It is filed as in vivo, mouse. Particulars: post-stroke treatment. The method, then: This test was performed on days 7, 14, 21, 28, 35 and 42 post-stroke in order to examine the sensorimotor deficits. Each mice was placed into transparent cylinder (15 cm diameter) during a habituation period of 1 min Thereafter, two different colored adhesive labels (2.5 mm diameter made by punch, Tough Spots) were applied with equal pressure on each mouse's forepaw. The times required to remove the adhesive labels were measured with a maximum of 2 min. To achieve an optimum level of performance, mice should be trained for 4 days before surgery.

For assay [4], the system named is stroke mice. In words: Barnes maze test (cognitive function) in stroke mice. As to conditions: 4 weeks after stroke; vs vehicle. It counts as in vivo, mouse. From the text: The spatial memory of ischemic mice was examined using Barnes maze (Stoelting Company, WoodDale, IL, USA) 28 days after tMCAO. The maze consists of a 91.5 cm diameter circular platform with 20 holes around the perimeter. Mice were discouraged to idle around aimlessly by blowing fans and a bright light above the platform. At day 0, mice were gently guided to enter the target hole after removing the start chamber. At day 1, mice were trained for 4 trials in 2 sessions to find the escape tunnel placed under the target hole. Once mice entered the target hole, the hole was covered and mice were allowed to stay in it for 2 min. If mice could not locate the target hole within 5 min, mice were guided by the observer to enter the target hole. At day 2, one trial was run and video-taped until the mouse getting into the target hole or stopped at 5 mins when the mouse could not locate the target hole. Time spent to locate the escaping hole and error numbers in finding the hiding hole made by the mouse were measured by an observer in a blinded fashion.

For assay [5], the system named is stroke mice. In words: Quantification of brain atrophy in stroke animals. It counts as in vivo, mouse. Particulars: post-stroke 6-week brain sections. The method, then: The post-stroke 6-week brain sections (25 μm) were mounted on PLL-coated slides. The sections were rehydrated in KH2PO4 buffer (pH 4.5) for 10 min, and then stained in pre-warm 10% Giemsa solution for 30 min at 42° C. After a brief rinse with KH2PO4 buffer, sections were dehydrated in absolute ethanol, cleared in xylene and mounted with Histoseal. A set of serial sections was imaged by Path Scan Enabler IV slide scanner. Contralateral and ipsilateral brain areas were quantified using ImageJ software. The calculation formula of atrophy rate is as follows: Σ (contralateral brain area−ipsilateral brain area)/Σ contralateral brain area×100%.

The subject of assay [6] is stroke mice. In words: DCX+ neuroblast formation in post-stroke mice. It is filed as in vivo, mouse. As to conditions: post-stroke treatment; vs vehicle.
Assay [7] relates to stroke mice. Kind of assay: Anterograde BDA tracing and quantification of corticospinal tract axonal sprouting. It is filed as in vivo, mouse. Particulars: post-stroke treatment; crossed CST fibers at cervical spinal cord, BDA tracing. The method, then: Four weeks after tMCAO, mice were anesthetized with 1.5% isoflurane/oxygen mixture and stabilized in a stereotaxic frame. 1.5 μl of the biotin dextran amine (BDA, MW10,000; 10% in PBS, invitrogen) were injected at three sites in the contralesional cortex (coordinates: 1. A/P 0.0 mm, M/L −2 mm, D/V −1 mm; 2.A/P 0.5 mm, M/L-1.5 mm, D/V-1 mm; 3. A/P 0.5 mm, M/L −2 mm, D/V −1 mm) Two weeks later, brain and cervical spinal cord were harvested after cardiac perfusion with PBS followed by 4% paraformaldehyde. After post-fix overnight in 4% paraformaldehyde and cryoprotection in 20% and 30% sucrose, coronal brain sections and transverse spinal cord sections were cut at 30 μm thickness. For the detection of BDA, sections were rinsed in 0.1M PB and incubated in 0.3% H2O2 for 30 min to inactivate endogenous peroxidase, followed by incubation for 2 hours with a Vectastain® ABC kit (Vector Laboratories, Burlingame, CA, USA). Staining was developed with 2,3′ diaminobenziine tetrahydrochloride (0.5 mg/ml in 0.1M PB). The number and length of midline-cross BDA+ fiber were assessed in a blinded manner Sections were analyzed with ImageJ software.

The next assay relates to adult NSCs. In words: Migration of neural stem cells on CSPGs (aggrecan coating). It is filed as cell-based, mouse. Particulars: 2.5 μM peptide, 21 hours, with or without aggrecan coating. From the text:
Primary stem cells were obtained from C57BL/6J mice at 5 weeks of age. After euthanization, whole brains were immediately harvested and dissected under microscope to obtain the subventricular zone (SVZ) tissue. After mechanical dissociation with a stab knife, the tissue fragment were processed using trypsin and resuspended as individual cells at a density of 10^4 cell/cm^2 in neurobasal media with growth factors (epidermal growth factor and basic fibroblast growth factor) (NBM-GF). Subsequent passaging of cells were performed using Accutase® (innovative #AT-104, CA, USA) every 7 days until the cells established viable lines, and cellular debris was naturally diminished after each passage. At day 4 of each passage, the proliferating spheres were fed with NBM-GF. We used neurospheres at passage P3-P8 in this study.
To determine the effects of CSPGs on the migration of neural stem cells in vitro, flat-bottom 48-well plates were first coated with poly-L-lysine overnight, followed by a rinsing with water. Aggrecan (A1960, sigma) were coated onto the 48-well plates at the concentration of 1 ug/ml and 10 ug/ml diluted in sterile water overnight, followed by a rinsing with water. The control wells contained poly-L-lysine alone. […] The inner area and total area of neurospheres were measured by ImageJ software. […]

Regarding “GRKKRRQRRRCIREDDSLMLYALAQEKKESNMHES [scrambled ISP peptide, reference compound]”, in the assay on WT primary NSCs, the “neurite outgrowth (neurite length) in differentiated NSCs” value was “no effects”.
Turning to “GRKKRRQRRRCDMAEHMERLKANDSLKLSQEYESI [ISP]”, in the assay with stroke mice [1] (continuous post-stroke treatment started 24 hours post-stroke, tMCAO mice, vehicle 44.828%), the “survival of stroke animals over time” value amounted to 67.742%. Further, the “survival rate of stroke animals” value in the assay on stroke mice [1] (treatment initiated at 24 hours post stroke, daily S.C., vs vehicle) is recorded as “improve the survival rate of stroke animals significantly”. Besides, the “locomotor function (total distance travelled, total horizontal activity, total vertical activity)” value in the assay on stroke mice [2] (treatment from 24 h post-stroke, 2-4 weeks after stroke, vs vehicle) was “significantly increased”. Also, the “open field locomotion performance (total distance, horizontal activity, vertical activity), delayed treatment” value in the assay on stroke mice [2] (treatment initiated 7 days post stroke, 1 mg/kg/day for 3 weeks, by week four) is “significant effects in improved performance”. In addition, in the assay with stroke mice [3] (affected front paw, vs vehicle), the “speed of tape removal, affected limb” value is reported as “significantly improved the speed”. Moreover, the “tape removal, unaffected limb” value in the assay on stroke mice [3] (unaffected front paw) is on record as “without any obvious effects”. For the same sequence, in the assay with stroke mice [4], the “error trials to find the escape hole in the Barnes maze” value was “less error trials” and the “time to find the escape hole in the Barnes maze” value is “significantly less time”. In addition, in the assay with stroke mice [5], the “chronic atrophy of brain after stroke” value is listed as “decreases the chronic atrophy of brain”. Besides, the “DCX+ neuroblasts near the lateral ventricle and adjacent striatal tissues” value in the assay on stroke mice [6] is on record as “enhanced”. In the assay on stroke mice [7], the “axonal sprouting from contralateral corticospinal tract” value was “enhanced”. Besides, the “migration of adult NSCs (normalized migration index)” value in the assay on adult NSCs is reported as “alleviates the inhibition of CSPGs on NSCs migration”. In addition, the “neurite outgrowth (neurite length) in differentiated NSCs” value in the assay with WT primary NSCs is “consistently increased neurite outgrowth”.

For the origin of these results see US12138300B2, “Methods and compositions for inducing neural plasticity” (CASE WESTERN RESERVE UNIVERSITY, priority 2018, dated 2024).
